# Experiments:
# Assay type in all cases: physicochemical
# [1] = Solubility of prostaglandin derivatives in 50 mM cyclodextrin derivative or water (Example 2)
# From the text: Solubility of Latanoprost, Bimatoprost And Travoprost in 50 Mm Mono-6-desoxy-6-diaminopropyl-β-cyclodextrin, Mono-6-desoxy-6-aminopropanol-β-cyclodextrin or Water
# [2] = Solubilization of latanoprost by a library of cyclodextrin derivatives (Example 1); conditions: ultra-pure water, room temperature
# Experimental: A library of unsubstituted and monosubstituted cyclodextrins was screened to identify those cyclodextrin derivatives that have the highest capacity for solubilization of latanoprost. Complexation was carried out in ultra-pure water at a molar ratio of cyclodextrin derivative to latanoprost of 5:1, corresponding to concentrations of 115.58 mM and 23.12 mM for cyclodextrin derivative and latanoprost, respectively. Because of the known sensitivity of latanoprost to light, high temperature and oxidation, experiments were conducted in the dark and under a nitrogen atmosphere at room temperature. […] Non-covalent complexes formed contained the cyclodextrin derivative and latanoprost at a molar ratio of 5:1.
# [3] = 30-day stability of latanoprost complexed with mono-6-desoxy-6-diaminopropyl-β-cyclodextrin, HPLC-ELSD (Example 6, Table 4); conditions: for Relative area of Latanoprost (%) after 30 days: ELSD
# Experimental: Latanoprost-mono-6-desoxy-6-diaminopropyl-β-cyclodextrin complex was prepared essentially as described under the previous example. Complex was dissolved in water to yield solutions (pH 6.7) containing 15 mg/ml and 7.5 mg/ml of latanoprost, respectively, or in a standard, isotonic phosphate buffer (pH 6.7) at 50 μg/ml. A control solution of 50 μg/ml latanoprost in phosphate buffer was also prepared. One-milliliter amounts of these solutions were transferred to pre-scored hermetically thermo-sealed ampoules, and the sealed ampoules were incubated at room temperature, at 37° C. or at 60° C., in the presence or absence of natural light, for a total of 30 days. Aliquots were removed periodically and were analyzed by HPLC using either a UV diode array detector (at 210 nm) or an evaporative light scattering detector (ELSD). […] Such instability had been observed previously. Morgan (2001) J. Glaucoma 10, 401-405; Yusuke Sakai (2005) Int. J. Pharmaceutics 305, 176-179. International patent publication WO 2004/024164.
# [4] = 30-day stability of latanoprost complexed with mono-6-desoxy-6-aminopropanol-β-cyclodextrin, quantitative HPLC (Example 6, Table 5); conditions: for Degradation products of latanoprost at 30 days (% of sum of drug and deg. prod.): uncomplexed aqueous solution
# Experimental: Analogous experiments were carried out to estimate the stability of latanoprost-mono-6-desoxy-6-aminopropanol-β-cyclodextrin complex.
# [5] = Time to reach maximal solubility of latanoprost in cyclodextrin solution (Example 3); conditions: 115 mM mono-6-desoxy-6-diaminopropyl-β-cyclodextrin, room temperature, dark, stirred
# Experimental: The minimal time period required for reaching maximal solubility of the guest molecule, i.e., latanoprost, in a solution containing 115 mM mono-6-desoxy-6-diaminopropyl-β-cyclodextrin was determined. Subsequent to addition of latanoprost, the resulting suspension was ultrasonicated for 5 min and then stirred magnetically at room temperature and in the dark for a period of 48 hours. Aliquots were removed at 0, 1, 3, 6, 12, 24 and 48 hours. Each aliquot was filtered through a 0.45 um PVDF (Millipore/Whatman) membrane, and the filtrate was diluted for quantitative analysis of latanoprost by HPLC. […] Subsequent experiments were conducted after 24 hours of equilibration.
# [6] = 50 mM mono-6-desoxy-6-aminopropanol-β-cyclodextrin solution, aqueous with cosolvent or surfactant or cyclodextrin, read-out: Solubility In 50 mM Mono-6-desoxy-6-aminopropanol-β-cyclodextrin
# [7] = 50 mM mono-6-desoxy-6-diaminopropyl-β-cyclodextrin solution, aqueous with cosolvent or surfactant or cyclodextrin, read-out: Solubility In 50 mM Mono-6-desoxy-6-diaminopropyl-β-cyclodextrin
# [8] = water, read-out: Solubility In Water
# [9] = dark, nitrogen, cyclodextrin derivative 115.58 mM : latanoprost 23.12 mM (5:1), 'No addition' = latanoprost alone (Exp. S0)
compound,measurement,setting,value
"CCNC(=O)CCC/C=C\C[C@@H]1[C@@H](/C=C/[C@@H](O)CCc2ccccc2)[C@H](O)C[C@@H]1O [Bimatoprost, 17-phenyl-18,19,20-trinor-PGF2α-ethylamide]",solubility,[1]; [6],10770 ± 50 µg/mL
same,solubility,[1]; [7],10700 ± 670 µg/mL
same,solubility,[1]; [8],3020 µg/mL
6^1-(3-amino-propylamino)-6^1-deoxycyclomaltoheptaose,Mass Ratio Cyclodextrin:Latanoprost in Complex,[2],14
same,Molar Ratio Cyclodextrin:Latanoprost in Complex,[2],5
same,Maximal Solubility of Latanoprost,[2]; [9],9570 µg/mL
"CC(C)OC(=O)CCC/C=C\C[C@@H]1C(CC[C@@H](O)CCc2ccccc2)[C@H](O)C[C@@H]1O (stereo partly drawn) [Latanoprost, 13,14-dihydro-17-phenyl-18,19,20-trinor-PGF2α-isopropylester]",Relative area of Latanoprost (%) after 30 days,"[3]; 25 °C, Dark",85.9%
same,Relative area of Latanoprost (%) after 30 days,"[3]; 25 °C, Light, intact latanoprost as % of sum of latanoprost and degradation product",76.9%
same,Relative area of Latanoprost (%) after 30 days,"[3]; 37 °C, Dark",100%
same,Relative area of Latanoprost (%) after 30 days,"[3]; 37 °C, Light",99.8%
same,Relative area of Latanoprost (%) after 30 days,"[3]; 60 °C, Dark",98.5%
same,Relative area of Latanoprost (%) after 30 days,"[3]; 60 °C, Light",94.7%
same,stability over 30 days (in words),"[3]; room temperature, 37° C. or 60° C., light or dark, 30 days","exhibited instability, in particular at 25 °C"
same,degradation at 25° C. (in words),"[4]; 25° C., 30 days",abundant degradation
same,Degradation products of latanoprost at 30 days (% of sum of drug and deg. prod.),"[4]; 25 °C, Dark",93.4%
same,Degradation products of latanoprost at 30 days (% of sum of drug and deg. prod.),"[4]; 25 °C, Light",77.9%
same,Degradation products of latanoprost at 30 days (% of sum of drug and deg. prod.),"[4]; 37 °C, Dark",0%
same,Degradation products of latanoprost at 30 days (% of sum of drug and deg. prod.),"[4]; 37 °C, Light",0%
same,Degradation products of latanoprost at 30 days (% of sum of drug and deg. prod.),"[4]; 60 °C, Dark",0%
same,Degradation products of latanoprost at 30 days (% of sum of drug and deg. prod.),"[4]; 60 °C, Light",0%
same,latanoprost in aqueous solution at 30 days,"[4]; uncomplexed, 25 °C, Dark",0.002 +/− 0.001 g/lt
same,latanoprost in aqueous solution at 30 days,"[4]; uncomplexed, 25 °C, Light",0.006 +/− 0.004 g/lt
same,latanoprost in aqueous solution at 30 days,"[4]; uncomplexed, 37 °C, Dark",0.051 +/− 0.001 g/lt
same,latanoprost in aqueous solution at 30 days,"[4]; uncomplexed, 37 °C, Light",0.061 +/− 0.003 g/lt
same,latanoprost in aqueous solution at 30 days,"[4]; uncomplexed, 60 °C, Dark",0.058 +/− 0.002 g/lt
same,latanoprost in aqueous solution at 30 days,"[4]; uncomplexed, 60 °C, Light",0.043 +/− 0.007 g/lt
same,latanoprost in aqueous solution at day 0,"[4]; uncomplexed, phosphate-citrate buffer pH 5.0",0.063 +/− 0.003 g/lt
same,solubility,[1]; [6],5720 ± 80 µg/mL
same,solubility,[1]; [7],5900 ± 60 µg/mL
same,solubility,[1]; [8],89 µg/mL
same,time at which solubility equilibrium was reached,[5],about 24 hours
same,solubility,"[2]; dark, nitrogen, cyclodextrin derivative 115.58 mM : latanoprost 23.12 mM (5:1), 'No addition' = latanoprost alone (Exp. S0), read-out: Maximal Solubility of Latanoprost",45 µg/mL
"3^1,6^1-anhydrocyclomaltoheptaose [Monoanhydro-β-cyclodextrin]",Mass Ratio Cyclodextrin:Latanoprost in Complex,[2],65
same,Molar Ratio Cyclodextrin:Latanoprost in Complex,[2],25
same,Maximal Solubility of Latanoprost,[2]; [9],2000 µg/mL
6^1-(methylthioureido-6^1-deoxycyclomaltoheptaose,Mass Ratio Cyclodextrin:Latanoprost in Complex,[2],106
same,Molar Ratio Cyclodextrin:Latanoprost in Complex,[2],38
same,Maximal Solubility of Latanoprost,[2]; [9],1300 µg/mL
"OC[C@H]1O[C@@H]2O[C@H]3[C@H](O)[C@@H](O)[C@@H](O[C@H]4[C@H](O)[C@@H](O)[C@@H](O[C@H]5[C@H](O)[C@@H](O)[C@@H](O[C@H]6[C@H](O)[C@@H](O)[C@@H](O[C@H]7[C@H](O)[C@@H](O)[C@@H](O[C@H]8[C@H](O)[C@@H](O)[C@@H](O[C@H]1[C@H](O)[C@H]2O)O[C@@H]8CO)O[C@@H]7CO)O[C@@H]6CO)O[C@@H]5CO)O[C@@H]4CO)O[C@@H]3CO [β-Cyclodextrin, β-cyclomaltoheptaose]",Mass Ratio Cyclodextrin:Latanoprost in Complex,[2],59
same,Maximal Solubility of Latanoprost,[2]; [9],255 µg/mL
6^1-(3-hydroxy-propylamino)-6^1-deoxycyclomaltoheptaose,Mass Ratio Cyclodextrin:Latanoprost in Complex,[2],14
same,Molar Ratio Cyclodextrin:Latanoprost in Complex,[2],5
same,Maximal Solubility of Latanoprost,[2]; [9],10200 µg/mL
"CC(C)OC(=O)CCC/C=C\C[C@@H]1[C@@H](/C=C/[C@@H](O)COc2cccc(C(F)(F)F)c2)[C@H](O)C[C@@H]1O [Travoprost, 16-(3-trifluoromethylphenoxy)-17,18,19,20-tetranor-PGF2α-isopropylester]",solubility,[1]; [6],4950 ± 20 µg/mL
same,solubility,[1]; [7],4940 ± 130 µg/mL
same,solubility,[1]; [8],32 µg/mL
